Source: BindingDB's records for doi:10.1016/j.bmcl.2005.10.013 (Universidad De Santiago De Compostela, 2005)

Tests used:
[1] = Noradrenaline induced vasorelaxant activity in intact rat aortic rings
[2] = Inhibition of thrombin-induced platelet aggregation in human

SMILES	IC50 [1]	IC50 [2]
O=c1oc2cc(O)ccc2cc1-c1cc(O)cc(O)c1 [7-hydroxy-3-(3',5'-dihydroxyphenyl)coumarin]	38.9 µM	62.3 µM
O=c1oc2ccc(O)cc2cc1-c1cc(O)cc(O)c1 [6-hydroxy-3-(3',5'-dihydroxyphenyl)coumarin]	10.6 µM	30.1 µM
O=c1oc2c(O)cc(O)cc2cc1-c1cc(O)cc(O)c1 [6,8-dihydroxy-3-(3',5'-dihydroxyphenyl)coumarin]	95.5 µM	285 µM
COc1cc(OC)cc(-c2cc3cc(OC)cc(OC)c3oc2=O)c1 [6,8-dimethoxy-3-(3',5'-dimethoxyphenyl)coumarin]	> 100 µM	> 100 µM
COc1cc(OC)cc(-c2cc3cc(OC)ccc3oc2=O)c1 [6-methoxy-3-(3',5'-dimethoxyphenyl)coumarin]	42.6 µM	> 25 µM
COc1cc(OC)cc(-c2cc3ccc(OC)cc3oc2=O)c1 [7-methoxy-3-(3',5'-dimethoxyphenyl)coumarin]	52.5 µM	> 100 µM
COc1cc(OC)cc(-c2cc3ccc(O)cc3oc2=O)c1 [3-(3,5-dimethoxyphenyl)-7-hydroxy-2H-chromen-2-one]	39.8 µM	105 µM
Oc1ccc(/C=C/c2cc(O)cc(O)c2)cc1 [5-[(E)-2-(4-hydroxyphenyl)ethenyl]benzene-1,3-diol]	19.9 µM	–
